In one data set the test system is dendritic cells. Nature of the data set: 48 hr response of wild-type and Caspase-1−/− mice to topical FITC+DBP (flow cytometry of draining lymph node). The format is in vivo. The note with it: vs wild-type. How it is done:
We also tested the relevance of a second dendritic cell activation system that intersects with TLR, the NALP inflammasome (reviewed in Franchi, L. et al. 2009 “The inflammasome: a Caspase-1-activation platform that regulates immune responses and disease pathogenesis” Nature Immunology 10:241-247).
Mice were treated topically on the shaved abdominal skin with FITC dissolved in acetone (5 mg/ml) combined with an equal volume of DBP. Two days later, the skin draining inguinal lymph node cells were stained for immunofluorescent flow cytometry using monoclonal antibodies specific for CD19, CD11c, CD40, I-Ab, CD80, and CD86 obtained from BD Pharmingen, and detected using a Becton Dickenson FACSCalibur followed by analysis of the data using FlowJo software.
For orientation: A flow cytometer gives signals particle by particle.

The next data set relates to OVA. Nature of the data set: Antibody response to endotoxin-free OVA injected intradermally followed by topical DBP. It is filed as in vivo, B6 mice. The note with it: endotoxin-free OVA i.d. followed by topical DBP. The text has this: The cutaneous lymphoid stress response bears a strong resemblance to the effects of topical DBP. DBP is required for the induction of contact hypersensitivity to FITC in mice, a form of allergic response. Topical DBP induces the migration of Langerhans cells from the epidermis to draining lymph nodes. And, topical DBP acts as an adjuvant for antigens injected into the skin, including endotoxin-free OVA. One might expect, therefore, that topical DBP would cause the same effects as tape stripping or occlusive skin patch immunization. To our surprise, none of the effects that characterize the DETC-dependent cutaneous lymphoid stress-surveillance response are found in the response to DBP.

For a further data set, the system named is Fluzone. On the set-up: species or system C57BL/6 mice. The note with it: mouse, in vivo.
The next data set has as its system skin. The note with it: in vivo.

With `CCCCOC(=O)c1ccccc1C(=O)OCCCC` [DBP, dibutylphthalate], the “dendritic cell response in Casp−/− mice” value in the data set on dendritic cells is “undiminished”. Also, in the data set on OVA, the “antigen-specific IgE” value is reported as “undetectable”, the “antigen-specific IgG1 antibodies” value is “significantly elevated”, the “antigen-specific IgG2b antibodies” value is listed as “significantly elevated” and the “antigen-specific IgG2c antibodies” value is listed as “significantly elevated”. The “HAI titer / adjuvant effect with the same dose of Fluzone” value in the data set on Fluzone was “majorly improved”. Further, the “histologic evidence of contact hypersensitivity” value in the data set on skin is “no histologic evidence of contact hypersensitivity”.

Source of the values: patent publication US20150307938A1, “METHOD TO IDENTIFY A NOVEL CLASS OF IMMUNOLOGIC ADJUVANTS” (Lancell, L.L.C., priority 2011, published 2015).
